The values that follow come from US4500712A, “Ergoline derivatives” (Farmitalia Carlo Erba S.p.A., priority 1981, dated 1985).

For one data set, the system named is restraint ulcers. Put plainly: Inhibition of restraint ulcers in rats (Bonfils et al.). The data set is classed as in vivo, Sprague-Dawley male rats. Particulars: 1 h; rat, oral, one hour before immobilization; read-out: Anticular activity (ED50, mg/kg p.o.). As for the experimental part: The anti-ulcerogenic activity of the compounds of the present invention is shown, e.g., by the fact that they are active in the test of the inhibition of restraint ulcers in rats, according to the method of Bonfils et al., (Therapie, 1960, 15, 1096). According to this method the tested compounds were administered per os one hour before the immobilization.
Six Sprague-Dawley male rats (100-120 g), fasted 24 hours, were used for the experiment: a square flexible small-mesh wire netting was used for the immobilization and 4 hours after the immobilization the rats were sacrificed, their stomachs were removed and the lesions counted under a dissecting microscope.

A further data set relates to gastric secretion. Put plainly: Gastric antisecretory activity in pylorus-ligated rats (Shay et al.). It is filed as in vivo, Sprague-Dawley male rats. Conditions: 4 h; rat, intraduodenal, at the time of ligature; read-out: Antisecretory activity (ED50, mg/kg i.d.). The procedure: According to this method the tested compounds were injected intraduodenally at the time of ligature. Six Sprague-Dawley male rats (110-130 g) were used for each group. Twenty-four hours before the test, the rats were deprived of food but the water supply was maintained. On the day of the operation, the pylorus was ligated under light ether anaesthesia. Four hours after the ligature, the rats were sacrificed. The stomach secretion was collected and centrifuged at 3500 r.p.m. for 10 minutes and the volume, less sediment, was determined. The amount of free hydrochloric acid in the gastric juice was determined by titration against 0.01N sodium hydroxide, to an end point of pH 7.

In data set [1] the test system is systolic blood pressure (S.B.P.) in SH-rats. Kind of data set: Systolic blood pressure in spontaneously hypertensive rats (indirect tail cuff method). The data set is classed as in vivo, spontaneously hypertensive rats (SHR, Kyoto). As for the experimental part: (§1) Indirect measurements of systolic blood pressure were carried out on groups of 4 spontaneously hypertensive rats (SHR, Kyoto), 8-10 weeks of age, supplied by Charles Rives, Italy.
(§2) The animals were maintained in an environment of 36° C. for 10-15 minutes to allow pulse pressure to be recorded and then systolic blood pressure and heart rate were measured by indirect tail cuff method using a W+W, BP recorder, model 8005.
(§3) The compounds were given orally, suspended in 5% arabic gum, once a day for 4 consecutive days and measurements were carried out before beginning the treatment and 1 and 5 hours after dosing in both the first and fourth day of treatment.
(§4) Control animals received the vehicle only (0.2 ml/100 g b.w.). As reference standards, hydralazine (1-5 mg/kg p.o.) and α-methyl-dopa (30-100 mg/kg p.o.) were also tested.
(§5) Drug-induced changes in systolic blood pressure and heart rate were calculated as differences from the pretreatment values.

For data set [2], the system named is heart rate (HR) in SH-rats. Kind of data set: Heart rate in spontaneously hypertensive rats (indirect tail cuff method). As for the experimental part:
as §1, §2, §3, §4, §5

Data set [3] deals with syndrome induced by oxotremorine. Particulars: general statement; cited from earlier work.
Where [4] appears, read: 5 mg/kg p.o., 1st day, 1 h post drug.
Setting [5] is: 5 mg/kg p.o., 1st day, 5 h post drug.
The mark [6] stands for this setting: 5 mg/kg p.o., 4th day, 1 h post drug.
[7] abbreviates: 5 mg/kg p.o., 4th day, 5 h post drug.
[8] abbreviates: 1 mg/kg p.o., 1st day, 1 h post drug.
Setting [9] is: 1 mg/kg p.o., 1st day, 5 h post drug.
Setting [10] is: 1 mg/kg p.o., 4th day, 1 h post drug.
The mark [11] stands for this setting: 1 mg/kg p.o., 4th day, 5 h post drug.

The structures appear in SMILES notation.

`CN1C[C@@H](CNC(=S)NC(=O)c2ccccc2)C[C@H]2c3cccc4[nH]cc(c34)C[C@H]21` [Ex 1, 6-Methyl-8α-(3-benzoyl-thioureidomethyl)-10β-ergoline]: the ED50 in the data set with restraint ulcers was found to be 4.2 mg/kg; in the data set on gastric secretion, 2.5 mg/kg.

For `CN1C[C@H](CNC(=S)NC(=O)c2ccccc2)C[C@@H]2c3cccc4[nH]cc(c34)C[C@H]21` [Ex 2, 6-Methyl-8β-(3-benzoyl-thioureidomethyl)-ergoline], the ED50 with restraint ulcers was found to be 0.7 mg/kg; with gastric secretion, 1.4 mg/kg.

As for `CC(=O)NC(=O)NC[C@@H]1C[C@@H]2c3cccc4[nH]cc(c34)C[C@H]2N(C)C1` [Ex 9, 6-Methyl-8β-(3-acetyl-ureidomethyl)-ergoline], the “Changes in S.B.P” value in data set [1] (setting [4]) is given as -25 ΔmmHg; in data set [1] (setting [5]) it was -17 ΔmmHg; in data set [1] (setting [6]), -57 ΔmmHg; in data set [1] (setting [7]) it was -56 ΔmmHg.

Regarding `CN1C[C@@H](CNC(=O)NC(=O)c2ccccc2)C[C@@H]2c3cccc4[nH]cc(c34)C[C@H]21` [Ex 10, 6-Methyl-8α-(3-benzoyl-ureidomethyl)-ergoline], the figures for the ED50 with restraint ulcers and in the data set on gastric secretion were 7 mg/kg and 1 mg/kg, respectively.

On to `CC(=O)NC(=O)NC[C@H]1C[C@@H]2c3cccc4[nH]cc(c34)C[C@H]2N(C)C1` [Ex 26, 6-Methyl-8α-(3-acetyl-ureidomethyl)-ergoline], for which the “Changes in S.B.P” value in data set [1] (setting [4]) was -28 ΔmmHg; in data set [1] (setting [5]), -60 ΔmmHg; in data set [1] (setting [6]), -45 ΔmmHg; in data set [1] (setting [7]), -36 ΔmmHg.

For `NNc1nncc2ccccc12` [Hydralazine, hydralazine], the “Changes in S.B.P” value was -5 ΔmmHg in data set [1] (setting [8]); -15 ΔmmHg in data set [1] (setting [9]); -5 ΔmmHg in data set [1] (setting [10]); 0 ΔmmHg in data set [1] (setting [11]); -40 ΔmmHg in data set [1] (setting [4]); -20 ΔmmHg in data set [1] (setting [5]). Further, the “Changes in S.B.P” value is reported as -20 ΔmmHg in data set [1] (setting [6]) and -7 ΔmmHg in data set [1] (setting [7]). Further, the “Changes in HR” value was “+30 beats/min” in data set [2] (setting [8]); “+35 beats/min” in data set [2] (setting [9]); “+25 beats/min” in data set [2] (setting [10]); “+15 beats/min” in data set [2] (setting [11]); “+40 beats/min” in data set [2] (setting [4]); “+45 beats/min” in data set [2] (setting [5]). For the same compound, the “Changes in HR” value in data set [2] (setting [6]) is “+18 beats/min”; in data set [2] (setting [7]) it was “+15 beats/min”. For the same compound, in data set [2] (Table 3, SH-rats), the “effects on heart rate (in words)” value is “increase HR”.

Regarding `CN1[C@@H]2CC[C@H]1C[C@@H](OC(=O)C(CO)c1ccccc1)C2` (some centres unmarked) [atropine], in data set [3], the “anti-cholinergic activity of known agent” value is “remarkable but undesired anti-cholinergic activity”.

With `C[C@](N)(Cc1ccc(O)c(O)c1)C(=O)O` [α-methyl-DOPA, α-methyl-dopa], the “Changes in S.B.P” value in data set [1] (30 mg/kg p.o., 1st day, 1 h post drug) is -10 ΔmmHg; in data set [1] (30 mg/kg p.o., 1st day, 5 h post drug), -20 ΔmmHg; in data set [1] (30 mg/kg p.o., 4th day, 1 h post drug) it was -10 ΔmmHg; in data set [1] (30 mg/kg p.o., 4th day, 5 h post drug), 0 ΔmmHg; in data set [1] (100 mg/kg p.o., 1st day, 1 h post drug), -10 ΔmmHg; in data set [1] (100 mg/kg p.o., 1st day, 5 h post drug) it was -25 ΔmmHg. Also, the “Changes in S.B.P” value in data set [1] (100 mg/kg p.o., 4th day, 1 h post drug) is reported as -20 ΔmmHg; in data set [1] (100 mg/kg p.o., 4th day, 5 h post drug), -25 ΔmmHg. In data set [2] (rat, in vivo), the “effects on heart rate (in words)” value is given as “increase HR”.
